Key:
MCF-7 cells = assay: Breast Cancer Cell Viability Assay (MCF-7, CellTiter-Glo); type: cell-based; details: 5 days' compound exposure; for IC50: Homo sapiens, MCF7, 120 h
Description: MCF-7 cells were adjusted to a concentration of 20,000 cells per mL in RPMI containing 10% FBS and 20 mM HEPES. 16 microliters of the cell suspension (320 cells) was added to each well of a 384 well plate, and the cells were incubated overnight to allow the cells to adhere. The following day an eleven point, serial semilog dilution of each compound was added to the cells in 16 μL at a final concentration ranging from 0.3-0.000003 μM. After 5 days' compound exposure, 16 μL of CellTiter-GLo (Promega, Madison Wis.) was added to the cells the relative luminescence units (RLUs) of each well was determined CellTiter-Glo added to 32 μL of medium without cells was used to obtain a background value. The Percent viability of each sample was determined as follows: (RLU sample-RLU background/RLU untreated cells-RLU background)×100=% viability.

ER-α = target: T1, ER-α (Homo sapiens, UniProt P03372); assay: Breast Cancer Cell ER-α In Cell Western Assay (SP1); type: cell-based; details: MCF-7 cells, SP1 antibody, 4 or 24 hr post compound addition; for Emax: MCF7, read-out: ER-α In Cell Western Assay (SP1) Max Response; for DC50: read-out: ER-α In Cell Western Assay (SP1) IC50
T1 sequence (P03372 1-595): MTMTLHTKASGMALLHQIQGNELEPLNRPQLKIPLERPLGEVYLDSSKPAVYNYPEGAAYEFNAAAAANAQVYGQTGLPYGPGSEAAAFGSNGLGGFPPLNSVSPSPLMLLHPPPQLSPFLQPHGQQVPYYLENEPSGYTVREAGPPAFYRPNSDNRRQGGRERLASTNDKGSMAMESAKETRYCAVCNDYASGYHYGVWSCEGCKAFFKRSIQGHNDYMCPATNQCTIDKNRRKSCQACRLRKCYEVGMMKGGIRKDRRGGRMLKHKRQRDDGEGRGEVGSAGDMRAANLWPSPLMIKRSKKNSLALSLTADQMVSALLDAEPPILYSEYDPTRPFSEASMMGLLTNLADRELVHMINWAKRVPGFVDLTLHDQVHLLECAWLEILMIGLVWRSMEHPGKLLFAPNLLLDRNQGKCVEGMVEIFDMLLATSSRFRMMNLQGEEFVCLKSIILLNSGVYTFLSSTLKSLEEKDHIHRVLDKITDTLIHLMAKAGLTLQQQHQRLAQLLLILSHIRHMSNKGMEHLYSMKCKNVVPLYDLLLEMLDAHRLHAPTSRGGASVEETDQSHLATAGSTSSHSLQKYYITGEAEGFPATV
Description: MCF-7 cells were adjusted to a concentration of 200,000 cells per mL in RPMI containing 10% charcoal-stripped FBS and 20 mM HEPES. 16 microliters of the cell suspension (3200 cells) was added to each well of a poly-D-lysine 384 well plate, and the cells were incubated overnight to allow the cells to adhere. The following day an eleven point, serial semilog dilution of each compound was added to the cells in 16 μL at a final concentration ranging from 0.3-0.000003 μM. At 4 or 24 hr post compound addition, the cells were fixed (10% formalin in PBS) for 20 minutes. Cells were permeablized in PBS 0.1% Triton and blocked with LICOR blocking buffer (50 μL1/well, 90′). The wells were then incubated overnight at 4° C. with SP1 rabbit monoclonal Ab (Thermo Scientific) diluted 1:1000 in LICOR blocking buffer/0.1% Tween-20. Wells which were treated with blocking buffer with Tween but no antibody were used as a background control. Wells were washed with 0.1% Tween-20/PBS and then incubated in goat anti-rabbit IRDye™ 800CW (LICOR Inc.; 1:1000) and DRAQ5 DNA dye (1:2000 for 2 mM stock) diluted in LICOR blocking buffer containing 0.1% Tween-20 and 0.01% SDS for 60 minutes. Cells were washed (50 μl/well, 5′ each) in 0.1% Tween-20/PBS. Plates were scanned on a LICOR Odyssey infrared imaging system. Integrated intensities in the 800 nm channel and 700 nm channel were measured to determine levels of ER and DNA respectively. Percent ER levels were determined as follows: (Integrated intensity 800 nm sample/integrated intensity 700 nm sample)/(Integrated intensity 800 nm untreated cells/integrated intensity 700 nm untreated cells)×100=% ER levels.

SMILES	IC50 (MCF-7 cells) [nM]	Emax (ER-α) [%]	DC50 (ER-α) [nM]	MCF7 Viability Assay Max Response (MCF-7 cells)
COCC/C(=C(/c1ccc(/C=C/C(=O)O)cc1)c1ccc2[nH]ncc2c1)c1ccccc1 [Compound 47, (E)-3-(4-((E)-1-(1H-Indazol-5-yl)-4-methoxy-2-phenylbut-1-en-1-yl)phenyl)acrylic acid]	≤ 100	≥ 40	≤ 100	++ (++ = a single % value ≧ 40%)
CC/C(=C(/c1ccc(/C=C/C(=O)O)cc1)c1cc2cn[nH]c2cc1C)c1ccccc1 [Compound 38, (E)-3-(4-((E)-1-(6-Methyl-1H-indazol-5-yl)-2-phenylbut-1-en-1-yl)phenyl)acrylic acid]	> 100	≥ 40	> 100	++ (++ = a single % value ≧ 40%)
CC/C(=C(/c1ccc(/C=C/C(=O)O)cc1)c1ccc2[nH]ncc2c1F)c1ccc(Cl)cc1C [Compound 70, (E)-3-(4-((E)-2-(4-Chloro-2-methylphenyl)-1-(4-fluoro-1H-indazol-5-yl)but-1-en-1-yl)phenyl)acrylic acid]	≤ 100	≥ 40	≤ 100	++ (++ = a single % value ≧ 40%)
CC/C(=C(/c1ccc(/C=C/C(=O)O)cc1)c1ccc2[nH]ncc2c1)c1ccc(O)cc1 [Compound 95, (E)-3-(4-((E)-2-(4-Hydroxyphenyl)-1-(1H-indazol-5-yl)but-1-en-1-yl)phenyl)acrylic acid]	≤ 100	≥ 40	≤ 100	++ (++ = a single % value ≧ 40%)
Cc1cc(Cl)ccc1/C(=C(\c1ccc(/C=C/C(=O)O)cc1)c1ccc2[nH]ncc2c1F)C1CC1 [Compound 72, (E)-3-(4-((E)-2-(4-Chloro-2-methylphenyl)-2-cyclopropyl-1-(4-fluoro-1H-indazol-5-yl)vinyl)phenyl)acrylic acid]	≤ 100	≥ 40	≤ 100	++ (++ = a single % value ≧ 40%)
O=C(O)/C=C/c1ccc(/C(=C(/CC2CCCC2)c2ccccc2)c2ccc3[nH]ncc3c2)cc1 [Compound 60, (E)-3-(4-((E)-3-Cyclopentyl-1-(1H-indazol-5-yl)-2-phenylprop-1-en-1-yl)phenyl)acrylic acid]	≤ 100	≥ 40	≤ 100	++ (++ = a single % value ≧ 40%)
CC/C(=C(/c1ccc(/C=C/C(=O)O)cc1)c1cc(F)c2[nH]ncc2c1)c1ccccc1 [Compound 62, (E)-3-(4-((E)-1-(7-Fluoro-1H-indazol-5-yl)-2-phenylbut-1-en-1-yl)phenyl)acrylic acid]	≤ 100	≥ 40	≤ 100	++ (++ = a single % value ≧ 40%)
CC/C(=C(/c1ccc(/C=C/C(=O)O)cc1)c1ccc2[nH]ncc2c1)c1ccccc1CC [Compound 18, (E)-3-(4-((E)-2-(2-Ethylphenyl)-1-(1H-indazol-5-yl)but-1-en-1-yl)phenyl)acrylic acid]	≤ 100	≥ 40	≤ 100	++ (++ = a single % value ≧ 40%)
O=C(O)/C=C/c1ccc(/C(=C(\c2ccccc2)C2CCCC2)c2ccc3[nH]ncc3c2)cc1 [Compound 53, (E)-3-(4-((E)-2-Cyclopentyl-1-(1H-indazol-5-yl)-2-phenylvinyl)phenyl)acrylic acid]	≤ 100	≥ 40	≤ 100	++ (++ = a single % value ≧ 40%)
CCOC(=O)/C=C/c1ccc(/C(=C(/CC)c2ccccc2OC)c2ccc3[nH]ncc3c2)cc1 [Compound 91, (E)-ethyl 3-(4-((E)-1-(1H-indazol-5-yl)-2-(2-methoxyphenyl)but-1-en-1-yl)phenyl)acrylate]	≤ 100			+ (+ = a single % value < 40%)
CCOC(=O)/C=C/c1ccc(/C(=C(/CC)c2ccc(OC)cc2)c2ccc3[nH]ncc3c2)cc1 [Compound 92, (E)-Ethyl 3-(4-((E)-1-(1H-Indazol-5-yl)-2-(4-methoxyphenyl)but-1-en-1-yl)phenyl)acrylate]	≤ 100			+ (+ = a single % value < 40%)

Continued, in another order:

IC50 (MCF-7 cells) [nM]	Emax (ER-α) [%]	DC50 (ER-α) [nM]	SMILES	MCF7 Viability Assay Max Response (MCF-7 cells)
> 100	≥ 40	≤ 100	CC/C(=C(/c1ccc(/C=C/C(=O)O)cc1)c1ccc2[nH]ncc2c1)c1cccc(C#N)c1C [Compound 141, (E)-3-(4-((E)-2-(3-Cyano-2-methylphenyl)-1-(1H-indazol-5-yl)but-1-en-1-yl)phenyl)acrylic acid]	++ (++ = a single % value ≧ 40%)
≤ 100	≥ 40		CC/C(=C(/c1ccc(/C=C/C(=O)O)cc1)c1ccc2[nH]ncc2c1)c1ccccc1S(C)(=O)=O [Compound 98, (E)-3-(4-((E)-1-(1H-Indazol-5-yl)-2-(2-(methylsulfonyl)phenyl)but-1-en-1-yl)phenyl)acrylic acid]	++ (++ = a single % value ≧ 40%)
> 100	≥ 40	> 100	CC/C(=C(/c1ccc(/C=C/C(=O)O)cc1)c1ccc2[nH]ncc2c1)c1cccc(S(C)(=O)=O)c1 [Compound 133, (E)-3-(4-((E)-1-(1H-Indazol-5-yl)-2-(3-(methylsulfonyl)phenyl)but-1-en-1-yl)phenyl)acrylic acid]	+ (+ = a single % value < 40%)
≤ 100	≥ 40	≤ 100	CC/C(=C(/c1ccc(/C=C/C(=O)O)c(F)c1)c1ccc2[nH]ncc2c1)c1ccccc1 [Compound 106, (E)-3-(4-((Z)-1-(1H-Indazol-5-yl)-2-phenylbut-1-en-1-yl)-2-fluorophenyl)acrylic acid]	++ (++ = a single % value ≧ 40%)
≤ 100	≥ 40	≤ 100	O=C(O)/C=C/c1ccc(/C(=C(\c2ccc(Cl)cc2Cl)C2CC2)c2ccc3[nH]ncc3c2)cc1 [Compound 125, (E)-3-(4-((E)-2-Cyclopropyl-2-(2,4-dichlorophenyl)-1-(1H-indazol-5-yl)vinyl)phenyl)acrylic acid]	++ (++ = a single % value ≧ 40%)
≤ 100	≥ 40	≤ 100	CC/C(=C(\c1ccc2[nH]ncc2c1)c1ccc(/C=C/C(=O)O)cc1F)c1ccccc1 [Compound 105, (E)-3-(4-((Z)-1-(1H-Indazol-5-yl)-2-phenylbut-1-en-1-yl)-3-fluorophenyl)acrylic acid]	++ (++ = a single % value ≧ 40%)
≤ 100			[2H]C([2H])([2H])C([2H])([2H])/C(=C(/c1ccc(/C=C/C(=O)O)cc1)c1ccc2[nH]ncc2c1)c1ccc(F)cc1Cl [Compound 136, (E)-3-(4-((E)-2-(2-Chloro-4-fluorophenyl)-3,3,4,4,4-pentadeutero-1-(1H-indazol-5-yl)but-1-en-1-yl)phenyl)acrylic acid]	++ (++ = a single % value ≧ 40%)
≤ 100			CC/C(=C(/c1ccc(/C=C/C(=O)O)cc1)c1ccc2[nH]ncc2c1)c1ccc(F)cc1Cl [Compound 111, (E)-3-(4-((E)-2-(2-Chloro-4-fluorophenyl)-1-(1H-indazol-5-yl)but-1-en-1-yl)phenyl)acrylic acid]	++ (++ = a single % value ≧ 40%)

Reference: patent US8455534B2, “Estrogen receptor modulators and uses thereof” (Aragon Pharmaceuticals, Inc., priority 2010, dated 2013)
